# Measured values taken from patent US12570655B2, “Cysteine covalent modifiers of AKT1 and uses thereof” (Terremoto Biosciences, Inc., priority 2023, dated 2026).
# Read-outs that look alike come from different tables or passages of the source.
# Columns and labels:
# Format in all cases: cell-based
# [1] = target: T1, AKT1 E17K (Homo sapiens, UniProt P31749, E17K); experiment: Live cell AKT1 E17K target engagement by NanoBRET competitive probe displacement; details: HEK293 cells transfected with kinase-NanoLuciferase fusion, 2 h at 37° C.
# T1 construct: expressed in transfected cells; host or cells: HEK293
# Procedure, shortened: (§1)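 Steps: overnight transfection of HEK293 with kinase-NanoLuc plasmids; addition of compound dilutions and tracer (~EC50); 2 h incubation at 37 °C; substrate plus extracellular luciferase inhibitor; luminescence at 460 and 600 nm. IC50 values came from fitting the BRET ratio to a Hill equation.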
# [2] = target: T2, AKT1 WT (Homo sapiens, UniProt P31749); experiment: Live cell AKT1 WT target engagement by NanoBRET competitive probe displacement; details: HEK293 cells transfected with kinase-NanoLuciferase fusion, 2 h at 37° C.
# T2 construct: expressed in transfected cells; host or cells: HEK293
# Procedure, shortened: as §1
# [3] = tested on: LAPC4 prostate cancer cells; experiment: Antiproliferative effects in LAPC4 cells (CellTiter Glo); details: LAPC4 cells (AKT1 E17K allele), read-out: LAPC4 proliferation IC50
# Procedure, shortened: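 Growth inhibition is gauged by intracellular ATP content, measured with CellTiter Glo 72 h after compound addition to 1,000 seeded cells per well. IC50 derives from a Hill equation fit.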
# [4] = target: T3, AKT2 (Homo sapiens, UniProt P31751); experiment: Live cell AKT2 target engagement by NanoBRET competitive probe displacement; details: HEK293 cells transfected with kinase-NanoLuciferase fusion, 2 h at 37° C.
# T3 construct: expressed in transfected cells; host or cells: HEK293
# Procedure, shortened: as §1
# T3 sequence (P31751 whole entry, the tested form may be a part): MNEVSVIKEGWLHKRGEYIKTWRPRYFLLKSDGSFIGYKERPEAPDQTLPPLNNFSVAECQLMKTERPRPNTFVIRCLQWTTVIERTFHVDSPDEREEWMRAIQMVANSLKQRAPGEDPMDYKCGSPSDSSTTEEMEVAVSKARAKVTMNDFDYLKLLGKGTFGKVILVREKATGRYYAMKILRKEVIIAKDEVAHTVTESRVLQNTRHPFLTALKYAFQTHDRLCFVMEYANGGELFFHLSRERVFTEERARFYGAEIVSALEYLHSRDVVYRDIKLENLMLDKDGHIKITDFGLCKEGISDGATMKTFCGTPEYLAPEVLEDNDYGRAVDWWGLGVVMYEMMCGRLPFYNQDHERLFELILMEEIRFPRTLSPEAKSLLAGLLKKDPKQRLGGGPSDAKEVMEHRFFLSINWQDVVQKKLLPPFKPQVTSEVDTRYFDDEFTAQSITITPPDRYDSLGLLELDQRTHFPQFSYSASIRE
# T2 sequence (P31749 whole entry, the tested form may be a part): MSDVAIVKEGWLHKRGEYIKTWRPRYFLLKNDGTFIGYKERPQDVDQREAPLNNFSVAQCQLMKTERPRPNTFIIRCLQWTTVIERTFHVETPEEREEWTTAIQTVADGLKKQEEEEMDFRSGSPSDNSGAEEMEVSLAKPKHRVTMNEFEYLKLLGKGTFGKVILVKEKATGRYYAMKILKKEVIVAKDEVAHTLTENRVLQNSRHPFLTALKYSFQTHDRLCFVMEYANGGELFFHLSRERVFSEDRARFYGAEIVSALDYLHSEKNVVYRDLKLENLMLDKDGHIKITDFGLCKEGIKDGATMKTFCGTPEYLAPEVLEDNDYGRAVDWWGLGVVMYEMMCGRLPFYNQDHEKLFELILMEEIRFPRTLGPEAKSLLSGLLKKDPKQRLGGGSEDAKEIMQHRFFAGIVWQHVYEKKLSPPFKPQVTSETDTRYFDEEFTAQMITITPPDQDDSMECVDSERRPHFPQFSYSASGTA
# T1 sequence (P31749 whole entry E17K, the tested form may be a part): as the sequence (P31749 whole entry, the tested form may be a part) above, with E17K counted along it
SMILES,IC50 [1] [µM],IC50 [2] [µM],"IC50 ([3]; Homo sapiens, LAPC4, 72 h) [µM]",IC50 [4] [µM],IC50 ([3]; 72 h) [µM]
"CC#CC(=O)NCc1ccccc1C(=O)N[C@H]1CCc2cc(-n3c(-c4cccnc4N)nc4ccc(-n5cccn5)nc43)ccc21 [Example 267, N-[(1S)-5-[2-(2-aminopyridin-3-yl)-5-(pyrazol-1-yl)imidazo[4,5-b]pyridin-3-yl]-2,3-dihydro-1H-inden-1-yl]-2-(but-2-ynamidomethyl)benzamide]",0.0059,0.0864,0.335,0.0536,
"C=CC(=O)NCCc1ccccc1C(=O)N[C@H]1CCc2cc(-n3c(-c4cccnc4N)nc4ccc(-n5cccn5)nc43)ccc21 [Example 268, (S)-2-(2-acrylamidoethyl)-N-(5-(2-(2-aminopyridin-3-yl)-5-(1H-pyrazol-1-yl)-3H-imidazo[4,5-b]pyridin-3-yl)-2,3-dihydro-1H-inden-1-yl)benzamide]",0.0148,0.297,0.358,0.0559,
"C=CC(=O)N1CCC(N[C@H]2CCc3cc(-n4c(-c5cccnc5N)nc5ccc(-n6ccc(COC)n6)nc54)ccc32)CC1 [Example 280, 1-(4-{[(1S)-5-[2-(2-aminopyridin-3-yl)-5-[3-(methoxymethyl)pyrazol-1-yl]imidazo[4,5-b]pyridin-3-yl]-2,3-dihydro-1H-inden-1-yl]amino}piperidin-1-yl)prop-2-en-1-one]",0.0203,0.127,0.104,0.0821,
"C=CC(=O)N1CCC(N[C@H]2CCc3cc(-n4c(-c5cccnc5N)nc5ccc(-n6ccc(C(C)C)n6)nc54)ccc32)CC1 [Example 281, 1-(4-{[(1S)-5-[2-(2-aminopyridin-3-yl)-5-(3-isopropylpyrazol-1-yl)imidazo[4,5-b]pyridin-3-yl]-2,3-dihydro-1H-inden-1-yl]amino}piperidin-1-yl)prop-2-en-1-one]",0.0154,0.254,0.253,0.0808,
"C=CC(=O)N1CCC(N[C@H]2CCc3cc(-n4c(-c5ccccc5)nc5ccc(-n6ccc(F)n6)nc54)ccc32)CC1 [Example 282, 1-(4-{[(1S)-5-[5-(3-fluoropyrazol-1-yl)-2-phenylimidazo[4,5-b]pyridin-3-yl]-2,3-dihydro-1H-inden-1-yl]amino}piperidin-1-yl)prop-2-en-1-one]",0.0152,1.59,0.464,0.086,
"C=CC(=O)N1CCC(N[C@H]2CCc3cc(-n4c(-c5cccnc5N)nc5ccc(-n6ccc(C7CCC7)n6)nc54)ccc32)CC1 [Example 283, 1-(4-{[(1S)-5-[2-(2-aminopyridin-3-yl)-5-(3-cyclobutylpyrazol-1-yl)imidazo[4,5-b]pyridin-3-yl]-2,3-dihydro-1H-inden-1-yl]amino}piperidin-1-yl)prop-2-en-1-one]",0.00903,0.133,0.835,0.042,
"C=CC(=O)N1CC2CC1CCC2N[C@H]1CCc2cc(-n3c(-c4cccnc4N)nc4ccc(-n5cccn5)nc43)ccc21 (stereo partly drawn) [Example 294, 1-(2-(((S)-5-(2-(2-aminopyridin-3-yl)-5-(1H-pyrazol-1-yl)-3H-imidazo[4,5-b]pyridin-3-yl)-2,3-dihydro-1H-inden-1-yl)amino)-6-azabicyclo[3.2.1]octan-6-yl)prop-2-en-1-one]",0.0286,0.301,0.217,0.0567,
"C=CC(=O)N1CCC(N[C@H]2CCc3cc(-n4c(-c5cccnc5N)nc5ccc(-n6cccn6)nc54)ccc3C2)CC1 [Example 296, 1-(4-{[(2S)-6-[2-(2-aminopyridin-3-yl)-5-(pyrazol-1-yl)imidazo[4,5-b]pyridin-3-yl]-1,2,3,4-tetrahydronaphthalen-2-yl]amino}piperidin-1-yl)prop-2-en-1-one]",0.0332,0.0934,0.0591,0.0366,
"C=CC(=O)N1CCC(N[C@H]2CCc3cc(-n4c(-c5cccnc5N)nc5ccc(-n6ccc(C7CCCC7)n6)nc54)ccc32)CC1 [Example 306, 1-(4-{[(1S)-5-[2-(2-aminopyridin-3-yl)-5-(3-cyclopentylpyrazol-1-yl)imidazo[4,5-b]pyridin-3-yl]-2,3-dihydro-1H-inden-1-yl]amino}piperidin-1-yl)prop-2-en-1-one]",0.0157,0.186,0.203,0.0723,
"C=CC(=O)N1CCC(N[C@H]2CCc3cc(-n4c(-c5cccnc5N)nc5ccc(-n6cccn6)nc54)ccc32)C(C)(F)C1 (stereo partly drawn) [Example 308, 1-((3*)-4-(((S)-5-(2-(2-aminopyridin-3-yl)-5-(1H-pyrazol-1-yl)-3H-imidazo[4,5-b]pyridin-3-yl)-2,3-dihydro-1H-inden-1-yl)amino)-3-fluoro-3-methylpiperidin-1-yl)prop-2-en-1-one]",0.0118,0.307,0.3,0.0623,
"C=CC(=O)N1CCC(N[C@@H]2c3ccc(-n4c(-c5cccnc5N)nc5ccc(-c6ccn(C(F)F)n6)nc54)cc3CC2F)CC1 (stereo partly drawn) [Example 310, 1-(4-(((1R,2*)-5-(2-(2-aminopyridin-3-yl)-5-(1-(difluoromethyl)-1H-pyrazol-3-yl)-3H-imidazo[4,5-b]pyridin-3-yl)-2-fluoro-2,3-dihydro-1H-inden-1-yl)amino)piperidin-1-yl)prop-2-en-1-one]",0.0345,1.48,,0.277,0.553
"C=CC(=O)N1CCC(N[C@H]2CCc3cc(-n4c(-c5cccnc5N)nc5cc(F)c(-n6cccn6)nc54)ccc32)CC1 [Example 313, 1-(4-{[(1S)-5-[2-(2-aminopyridin-3-yl)-6-fluoro-5-(pyrazol-1-yl)imidazo[4,5-b]pyridin-3-yl]-2,3-dihydro-1H-inden-1-yl]amino}piperidin-1-yl)prop-2-en-1-one]",0.0218,0.518,0.347,0.113,
"C=CC(=O)N1CCC(N[C@H]2CCc3cc(-n4c(-c5cccnc5N)nc5ccc(-n6ccc(OC7CC7)n6)nc54)ccc32)CC1 [Example 314, 1-(4-{[(1S)-5-[2-(2-aminopyridin-3-yl)-5-(3-cyclopropoxypyrazol-1-yl)imidazo[4,5-b]pyridin-3-yl]-2,3-dihydro-1H-inden-1-yl]amino}piperidin-1-yl)prop-2-en-1-one]",0.00744,0.0951,0.0549,0.0238,
"C=CC(=O)N1CCC(N[C@H]2CCc3cc(-n4c(-c5cccnc5N)nc5c(C#N)cc(-n6cccn6)nc54)ccc32)CC1 [Example 315, 2-(2-aminopyridin-3-yl)-3-[(1S)-1-{[1-(prop-2-enoyl)piperidin-4-yl]amino}-2,3-dihydro-1H-inden-5-yl]-5-(pyrazol-1-yl)imidazo[4,5-b]pyridine-7-carbonitrile]",0.0143,0.183,0.12,0.0703,
"C=CC(=O)N1CCC(N[C@H]2CCc3cc(-n4c(-c5cccnc5N)nc5ccc(-c6nnc(C7CC7)s6)nc54)ccc32)CC1 [Example 320, (S)-1-(4-((5-(2-(2-aminopyridin-3-yl)-5-(5-cyclopropyl-1,3,4-thiadiazol-2-yl)-3H-imidazo[4,5-b]pyridin-3-yl)-2,3-dihydro-1H-inden-1-yl)amino)piperidin-1-yl)prop-2-en-1-one]",0.0118,0.29,0.0782,0.0455,
"C=CC(=O)N1CCC(N[C@H]2CCc3cc(-n4c(-c5cccnc5N)nc5ccc(-n6ccc(C7CCOCC7)n6)nc54)ccc32)CC1 [Example 321, 1-(4-{[(1S)-5-[2-(2-aminopyridin-3-yl)-5-[3-(oxan-4-yl)pyrazol-1-yl]imidazo[4,5-b]pyridin-3-yl]-2,3-dihydro-1H-inden-1-yl]amino}piperidin-1-yl)prop-2-en-1-one]",0.00719,0.158,0.0807,0.0242,
"C=CC(=O)N1CCC(N[C@H]2CCc3cc(-n4c(-c5cccnc5N)nc5ccc(-n6ccc(C7(C#N)CC7)n6)nc54)ccc32)CC1 [Example 322, (S)-1-(1-(3-(1-((1-acryloylpiperidin-4-yl)amino)-2,3-dihydro-1H-inden-5-yl)-2-(2-aminopyridin-3-yl)-3H-imidazo[4,5-b]pyridin-5-yl)-1H-pyrazol-3-yl)cyclopropane-1-carbonitrile]",0.00551,0.247,0.137,0.0414,
"C=CC(=O)N1CCC(N[C@H]2CCc3cc(-n4c(-c5cccnc5N)nc5c(OC)cc(-n6cccn6)nc54)ccc32)CC1 [Example 337, 1-(4-{[(1S)-5-[2-(2-aminopyridin-3-yl)-7-methoxy-5-(pyrazol-1-yl)imidazo[4,5-b]pyridin-3-yl]-2,3-dihydro-1H-inden-1-yl]amino}piperidin-1-yl)prop-2-en-1-one]",0.00633,0.0303,0.0995,0.0294,
C=CC(=O)N1CCC(N[C@H]2CCc3cc(-n4c(-c5cccnc5N)nc5ccc(C(F)(F)F)nc54)ccc32)CC1 [Example 348],0.032,2.67,0.872,0.362,
C=CC(=O)N1CCN(N[C@H]2CCc3cc(-n4c(-c5cccnc5N)nc5ccc(C6CC6)nc54)ccc32)CC1 [Example 349],0.032,1.64,1.16,0.432,
C=CC(=O)N1CCN(N[C@@H]2CCc3cc(-n4c(-c5cccnc5N)nc5ccc(C6CC6)nc54)ccc32)CC1 [Example 350],0.0727,2.51,1.09,0.416,
